Data reported in patent US12297192B2, “Crystal form of pyrimidine sulfonamide compound and preparation method therefor” (WUXI BIOCITY BIOPHARMACEUTICS CO., LTD., priority 2019, dated 2025).
Several values for one entry are separate records, joined by “and”; a condition that tells them apart may be missing. Identical values can stand only once.

Columns and labels:
[1] = Hygroscopicity study of Crystal Form A; type: physicochemical; conditions: 25° C., 24 hours
From the text: Categorization in the hygroscopicity evaluation is as follows:
• 1) Two dry stoppered glass weighing bottles (50 mm external diameter, 30 mm high) were taken and kept in a desiccator with a saturated solution of ammonium chloride in the lower part. The weighing bottles were left open.

[2] = Stability test of Crystal Form A in different solvents (XRPD after 3 days stirring in saturated solutions); type: physicochemical; conditions: for Crystalline (form by XRPD, 3 days later) / Status (3 days later): 0.3 mL
Method: The crude compound of formula (I) was dissolved in dichloromethane at 38-40° C., filtered while hot, concentrated under reduced pressure to dryness to obtain mixed crystals of formula (I). Saturated solutions of mixed crystals of the compound of formula (I) in THF and ACN were prepared at 50° C., respectively.
The suspension was centrifuged. The precipitate was taken and dried overnight in a vacuum oven at 30° C. The dried product was subjected to XRPD to determine the status of the crystal forms.

human ETA receptors = biological target: T1, human ETA receptors (Homo sapiens, UniProt P25101); experiment: In vitro antagonistic effect on human ETA receptors (Ca2+ fluorescence, SK-N-MC cells); type: cell-based
T1 construct: endogenously expressed human ETA receptors in SK-N-MC cells; host or cells: SK-N-MC cells
T1 sequence (P25101 21-427): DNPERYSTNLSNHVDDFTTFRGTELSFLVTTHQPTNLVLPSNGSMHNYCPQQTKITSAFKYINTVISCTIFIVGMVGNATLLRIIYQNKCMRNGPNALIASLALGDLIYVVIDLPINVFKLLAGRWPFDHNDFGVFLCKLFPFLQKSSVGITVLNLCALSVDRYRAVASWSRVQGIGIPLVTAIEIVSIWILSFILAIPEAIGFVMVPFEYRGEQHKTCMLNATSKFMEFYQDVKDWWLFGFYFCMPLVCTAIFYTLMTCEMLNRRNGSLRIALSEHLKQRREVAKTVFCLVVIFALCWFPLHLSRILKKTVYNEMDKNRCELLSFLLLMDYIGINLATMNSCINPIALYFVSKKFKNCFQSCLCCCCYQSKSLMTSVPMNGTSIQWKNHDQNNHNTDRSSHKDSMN
Method: The antagonistic activity of the compounds on endogenously expressed human ETA receptors in SK-N-MC cells was assessed by measuring the effects of the compounds on changes in cytoplasmic Ca^2+ ion signaling induced by an agonist of human ETA receptor using a fluorescence assay. The functional activity of the ETA receptor antagonistic effect was tested at Eurofins-Cerep SA according to current standard operating procedures.
• 1. Cells were suspended in Dulbecco's modified Eagle medium solution (DMEM, Invitrogen) supplemented with 1% FCSd and then distributed at a density of 5×10^4 cells/well in 384 plates (100 μL/well). • 2. Hank's Balanced Salt Solution (HBSS, Invitrogen) supplemented with 20 mM 4-(2-hydroxyethyl) piperazine-1-ethanesulfonic acid (Hepes, Invitrogen) (pH 7.4) was mixed with the fluorescent probe (Fluo4 NW, Invitrogen) and added to each well. Equilibrated with the cells for 60 minutes at 37° C. and then for 15 min at 22° C. • 3. The assay plate was placed in a microplate reader (CellLux, PerkinElmer). DMSO solution of the test compound and the positive control in appropriate concentration or HBSS buffer was added. After 5 minutes, 1 nM endothelin-1 or HBSS buffer (basal control) was added. Then the change in fluorescence intensity was measured. The fluorescence intensity is in proportion to the Ca^2+ ion concentration of the free cytosol. • 4. […] The standard positive control was BQ-123 and several concentrations were tested in each experiment and the data was analyzed using Prism to produce a concentration-response curve to calculate the IC50 values of the compounds. • 6.

Structure (SMILES): COCCNS(=O)(=O)Nc1ncnc(OCCOc2ncc(Br)cn2)c1-c1ccc2c(c1)OCO2
- Hygroscopicity categorization [1]: non- or almost non-hygroscopic
- Moisture-absorption weight gain, Mean (%) ([1]; mean of two samples, desiccator with saturated ammonium chloride solution): 0.075%
- Weight gain percentage (%) ([1]; single sample, desiccator with saturated ammonium chloride solution): 0.11% and 0.04%
- Crystalline (form by XRPD, 3 days later) ([2]; Acetonitrile, 25 °C): Crystal Form A
- Status (3 days later) ([2]; Acetonitrile, 25 °C): Precipitation
- Crystalline (form by XRPD, 3 days later) ([2]; Acetonitrile, 50 °C): Crystal Form A
- Status (3 days later) ([2]; Acetonitrile, 50 °C): Precipitation
- Crystalline (form by XRPD, 3 days later) ([2]; Tetrahydrofuran, 25 °C): Crystal Form A
- Status (3 days later) ([2]; Tetrahydrofuran, 25 °C): Precipitation
- Crystalline (form by XRPD, 3 days later) ([2]; Tetrahydrofuran, 50 °C): Crystal Form A
- Status (3 days later) ([2]; Tetrahydrofuran, 50 °C): Precipitation
- Stability in solvents (conclusion in words) ([2]; acetonitrile and tetrahydrofuran at both 25° C. and 50° C.): Experimental conclusion: Crystal Form A of the compound of formula (I) had good stability in acetonitrile and tetrahydrofuran at both 25 °C and 50 °C
- In vitro antagonistic activity against the human ETA receptor (in words) (human ETA receptors): very high
- Selectivity for ETA over ETB (human ETA receptors): 20,000 fold
- IC50 (human ETA receptors; SK-N-MC cells, 1 nM endothelin-1): 1.6 nM
- ETA/ETB Selectivity (human ETA receptors; table value): 20000
